The results in this text go back to patent US20090054507A1, “CONTROL OF MALIGNANT CELLS BY KINASE INHIBITION” (CLEVELAND STATE UNIVERSITY, priority 2006, published 2009).

Data set [1] deals with MEG-01 xenografts. The experiment in a line: In vivo therapy of MEG-01 xenografts, tumor volume. Details: species or system mice. Particulars: for tumor volume: subcutaneous in the neck, 2 weeks. The source says:
Creation of MEG-01 xenografts. Immunodeficient male athymic nude nu/nu mice were used, provided and housed by Dr. Lindner, D J from Taussig Cancer Center, Cleveland Clinic and Case Western Reserve University. The mice were checked every day. The mice were housed in filtered air flow cabinets with autoclaved bedding at a density of 5 mice/cage. They were fed autoclaved Purina Lab Rodent Chow® 5010 and HCl-acidified distilled water ad libitum and were placed in rooms with controlled temperature, humidity and 12-hr light-dark cycles. Procedures involving animals and their care were conducted in conformity with the institutional guidelines that are in compliance with national and international laws and policies (EEC Council Directive 86/609, OJL 358, Dec. 1, 1987, and the National Institutes of Health Guide for the Care and Use of Laboratory, Animals, NIH Publication 85-23, 1985).
For engraftment, cells in cell culture media were injected. MEG-01 myeloid blast crisis cells (10×10^6 cells/100 μl in cell culture media (RPMI 1640 1×, 10% FBS) were injected subcutaneously into the lower flanks of mice (left and right). Cells were counted with a hemacytometer using Trypan blue (only live cells were counted).
After 10 days the mice developed tumors large enough to start the treatment. Tumors were visible after 6-7 days from inoculation. The average weight of the mice typically ranged 30-35 g. Treatment with DMAT was started when tumors were at least 100-200 mm^3 volumes (prolate spheroid). Tumor volumes were calculated as prolate spheroid (4/3*π*(a)^2*(b), where “2a” is the minor axis and “2b” is the major axis of the prolate spheroid. “2a” and “2b” were measured with a caliper (mm). Animals were treated with DMAT for approximately 2 weeks. When tumor volumes reached a size unacceptable with the IACUC protocols, animals were sacrificed in a CO2 euthanasia chamber. Tumors were collected for further histological analysis. […]
In vivo therapy with DMAT of MEG-01 xenografts. […] Tumor diameters were measured using a caliper and tumor volume was calculated using the prolate-spheroid formula. […]

Data set [2] in a line: In vivo toxicity study for DMAT. Details: species or system mouse. As for the experimental part:
In vivo toxicity study for DMAT. A male nude mouse (without tumors) was treated with DMAT to determine a toxicity level. A saturated solution of DMAT in DMSO was inoculated daily in the neck subcutaneously (100 μl of 100 mg/ml DMAT in DMSO). Therefore this animal received 10 mg DMAT per day. After 2 weeks this animal was sacrificed and organs were collected for further analysis.

Data set [3] relates to tumors of HT1376 cells. Nature of the data set: Murine xenograft of HT1376 cells, tumor volume. It counts as in vivo, mice. Particulars: DMAT at effective dosage levels (in DMSO) per animal per day, 36 days. Here is the method:
FIG. 95 illustrates the effect of administration of DMAT s compared to a control over a time period of 36 days. FIG. 95 is a graph of a murine xenograft treated with DMAT, compared to a control. Mice with tumors of HT1376 cells were treated with DMAT at effective dosage levels (in DMSO) per animal per day. The daily animal weight was averaged at 32.5 g at the start of treatment. Tumors were measured daily and tumor volumes were calculated based upon a prolate spheroid model. FIG. 95 illustrates the significant benefits of treatment with DMAT (circles) as compared to the control (squares). Although the tumor size increased for HT1376 cells treated with DMAT, the tumor volume remained approximately one-half of the size as that associated with the untreated HT1376 cells.

Data set [4] deals with tumors of U-87 cells. Nature of the data set: Murine xenograft of U-87 cells, tumor volume. It counts as in vivo, mice. Particulars: DMAT at effective dosage levels (in DMSO) per animal per day, approximately 24 days. As for the experimental part: FIG. 96 illustrates the effect of administration of DMAT as compared to a control, i.e. DMSO, for a period of approximately 24 days. FIG. 96 is a graph of a murine xenograft treated with DMAT, compared to a control. Mice with tumors of U-87 cells were treated with DMAT at effective dosage levels (in DMSO) per animal per day. The daily animal weight was averaged at 32.5 g at the start of treatment. Tumors were measured daily and tumor volumes were calculated based upon a prolate spheroid model. FIG. 96 illustrates the significant benefits of treatment with DMAT (squares) as compared to the control (diamonds).

Setting [5] is: 200 mg/kg per day DMAT (in DMSO), subcutaneous in the neck, 2 weeks.

Consider `CN(C)c1nc2c(Br)c(Br)c(Br)c(Br)c2[nH]1` [DMAT, 2-dimethylamino-4,5,6,7-tetrabromo-1H-benzimidazole], for which the tumor volume entry in data set [1] (DMAT 2 mg (in DMSO) per animal per day) is “proliferation arrest in vivo in large tumors and tumor ablation in small tumors”. The tumor volume result in data set [1] (DMAT 3 mg (in DMSO) per animal per day) was “proliferation arrest in vivo for large tumors and tumor ablation in small tumors”. The “response of xenograft tumors to treatment (summary)” value in data set [1] (mouse, in vivo) was “tumor ablation”. Also, the “histological analyses of all organs vs control animal (not injected)” value in data set [2] (10 mg/day/animal for 2 weeks) is listed as “did not show any difference”. Further, in data set [2] (setting [5]), the behavior result was “generally normal behavior” and the liver size entry is recorded as “appeared to have increased in size”. For the same molecule, the injection site result in data set [2] (200 mg/kg per day DMAT (in DMSO), subcutaneous in the neck, 2 weeks, male athymic nude mouse) was “irritated and swollen like a cyst”. For the same molecule, in data set [3], the “tumor volume relative to untreated HT1376 cells” value is listed as “approximately one-half”. The “tumor growth vs untreated control” value in data set [4] is recorded as “significantly less cancerous growth”.
